# Measurements: ChEMBL document CHEMBL4715829, “Heterodimeric Rifampicin-Tobramycin conjugates break intrinsic resistance of Pseudomonas aeruginosa to doxycycline and chloramphenicol in vitro and in a Galleria mellonella in vivo model” (Eur J Med Chem, 2019)
# Tests used:
# Pseudomonas aeruginosa [1] = assay: Antibacterial activity against Pseudomonas aeruginosa 260-97103 assessed as fractional inhibitory concentration incubated for 18 hrs in presence of doxycycline by broth microdilution assay; type: functional
# Pseudomonas aeruginosa [2] = assay: Antibacterial activity against Pseudomonas aeruginosa 260-97103 assessed as fractional inhibitory concentration incubated for 18 hrs in presence of chloramphenicol by broth microdilution assay; type: functional
# Pseudomonas aeruginosa [3] = assay: Antibacterial activity against Pseudomonas aeruginosa 264-101354 assessed as reduction in bacterial growth by measuring chloramphenicol MIC at 8 ug/ml incubated for 18 hrs in presence of chloramphenicol by broth microdilution assay (reference value: 4096 ug/ml); type: functional; settings: dose 8 µg/ml
# Pseudomonas aeruginosa [4] = assay: Antibacterial activity against Pseudomonas aeruginosa 114228 assessed as fractional inhibitory concentration index incubated for 18 hrs in presence of rifampicin by broth microdilution assay; type: functional
# Pseudomonas aeruginosa [5] = assay: Antibacterial activity against Pseudomonas aeruginosa 100036 assessed as fractional inhibitory concentration index incubated for 18 hrs in presence of tigecycline by broth microdilution assay; type: functional
# Pseudomonas aeruginosa [6] = assay: Antibacterial activity against Pseudomonas aeruginosa 264-101354 assessed as fractional inhibitory concentration incubated for 18 hrs in presence of minocycline by broth microdilution assay; type: functional
# Pseudomonas aeruginosa [7] = assay: Antibacterial activity against Pseudomonas aeruginosa 264-101354 assessed as fractional inhibitory concentration incubated for 18 hrs in presence of rifampicin by broth microdilution assay; type: functional
# Pseudomonas aeruginosa [8] = assay: Antibacterial activity against Pseudomonas aeruginosa 91433 assessed as fractional inhibitory concentration incubated for 18 hrs in presence of rifampicin by broth microdilution assay; type: functional
# Pseudomonas aeruginosa [9] = assay: Antibacterial activity against Pseudomonas aeruginosa 100036 assessed as potentiation of chloramphenicol-induced antibacterial activity by measuring chloramphenicol MIC at 9.8 uM incubated for 18 hrs in presence of chloramphenicol by broth microdilution assay (reference value: 1024 ug/ml); type: functional
# Klebsiella pneumoniae = assay: Potentiation of chloramphenicol-induced antibacterial activity against Klebsiella pneumoniae ATCC 16381 assessed as fold change in chloramphenicol MIC at 9.8 uM incubated for 18 hrs in presence of chloramphenicol by broth microdilution assay relative to control; type: functional
# Pseudomonas aeruginosa [10] = assay: Antibacterial activity against Pseudomonas aeruginosa 262-101856 assessed as potentiation of doxycycline-induced antibacterial activity by measuring doxycycline MIC at 9.8 uM incubated for 18 hrs in presence of doxycycline by broth microdilution assay (reference value: 1024 ug/ml); type: functional
# Pseudomonas aeruginosa [11] = assay: Antibacterial activity against Pseudomonas aeruginosa 262-101856 assessed as fractional inhibitory concentration incubated for 18 hrs in presence of rifampicin by broth microdilution assay; type: functional
# Pseudomonas aeruginosa [12] = assay: Antibacterial activity against Pseudomonas aeruginosa 114228 assessed as potentiation of doxycycline-induced antibacterial activity by measuring doxycycline MIC at 9.8 uM incubated for 18 hrs in presence of doxycycline by broth microdilution assay (reference value: 32 ug/ml); type: functional
# Pseudomonas aeruginosa [13] = assay: Antibacterial activity against Pseudomonas aeruginosa 114228 assessed as potentiation of chloramphenicol-induced antibacterial activity by measuring chloramphenicol MIC at 9.8 uM incubated for 18 hrs in presence of chloramphenicol by broth microdilution assay (reference value: 64 ug/ml); type: functional
# Pseudomonas aeruginosa [14] = assay: Antibacterial activity against Pseudomonas aeruginosa 259-96918 assessed as fractional inhibitory concentration index incubated for 18 hrs in presence of minocycline by broth microdilution assay; type: functional
# Pseudomonas aeruginosa [15] = assay: Antibacterial activity against Pseudomonas aeruginosa 100036 assessed as potentiation of doxycycline-induced antibacterial activity by measuring doxycycline MIC at 9.8 uM incubated for 18 hrs in presence of doxycycline by broth microdilution assay (reference value: 64 ug/ml); type: functional
# Pseudomonas aeruginosa [16] = assay: Antibacterial activity against Pseudomonas aeruginosa 260-97103 assessed as fractional inhibitory concentration incubated for 18 hrs in presence of rifampicin by broth microdilution assay; type: functional
# Pseudomonas aeruginosa [17] = assay: Antibacterial activity against Pseudomonas aeruginosa 259-96918 assessed as fractional inhibitory concentration index incubated for 18 hrs in presence of rifampicin by broth microdilution assay; type: functional
# Pseudomonas aeruginosa [18] = assay: Potentiation of chloramphenicol-induced antibacterial activity against Pseudomonas aeruginosa PAO200 harboring mexA-mexB-oprM deletion mutant assessed as fold change in chloramphenicol MIC at <=9.8 uM incubated for 18 hrs in presence of chloramphenicol by broth microdilution assay; type: functional; settings: dose microM <=9.8
# Pseudomonas aeruginosa [19] = assay: Potentiation of chloramphenicol-induced antibacterial activity against Pseudomonas aeruginosa 91433 assessed as fold change in chloramphenicol MIC at 9.8 uM incubated for 18 hrs in presence of chloramphenicol by broth microdilution assay relative to control; type: functional
# HepG2 = assay: Cytotoxicity against human HepG2 cells assessed as cell viability at 50 uM incubated for 48 hrs in presence of chloramphenicol by prestoblue assay; type: cell-based; settings: hepg2, 48 h
# Pseudomonas aeruginosa [20] = assay: Antibacterial activity against Pseudomonas aeruginosa 262-101856 assessed as reduction in bacterial growth by measuring doxycycline MIC at 16 ug/ml incubated for 18 hrs in presence of doxycycline by broth microdilution assay (reference value: 1024 ug/ml); type: functional; settings: dose 16 µg/ml
# Pseudomonas aeruginosa [21] = assay: Antibacterial activity against wild type Pseudomonas aeruginosa PAO1 assessed as reduction in bacterial growth by measuring chloramphenicol MIC at 8 ug/ml incubated for 18 hrs in presence of chloramphenicol by broth microdilution assay (reference value: 32 ug/ml); type: functional; settings: dose 8 µg/ml
# Pseudomonas aeruginosa [22] = assay: Antibacterial activity against Pseudomonas aeruginosa 260-97103 assessed as reduction in bacterial growth by measuring chloramphenicol MIC at 2 ug/ml incubated for 18 hrs in presence of chloramphenicol by broth microdilution assay (reference value: 128 ug/ml); type: functional; settings: dose 2 µg/ml
# Pseudomonas aeruginosa [23] = assay: Antibacterial activity against Pseudomonas aeruginosa 260-97103 assessed as potentiation of doxycycline-induced antibacterial activity by measuring doxycycline MIC at 7.6 uM incubated for 18 hrs in presence of doxycycline by broth microdilution assay (reference value: 16 ug/ml); type: functional
# Pseudomonas aeruginosa [24] = assay: Antibacterial activity against Pseudomonas aeruginosa 101243 assessed as potentiation of chloramphenicol-induced antibacterial activity by measuring chloramphenicol MIC at 7.6 uM incubated for 18 hrs in presence of chloramphenicol by broth microdilution assay (reference value: 1 ug/ml); type: functional
# Pseudomonas aeruginosa [25] = assay: Potentiation of doxycycline-induced antibacterial activity against Pseudomonas aeruginosa 262-101856 assessed as fold change in doxycycline MIC at 7.6 uM incubated for 18 hrs in presence of doxycycline by broth microdilution assay relative to control; type: functional
# Pseudomonas aeruginosa [26] = assay: Antibacterial activity against Pseudomonas aeruginosa 101885 assessed as potentiation of doxycycline-induced antibacterial activity by measuring doxycycline MIC at 7.6 uM incubated for 18 hrs in presence of doxycycline by broth microdilution assay (reference value: 64 ug/ml); type: functional
# Escherichia coli = assay: Potentiation of doxycycline-induced antibacterial activity against Escherichia coli ATCC 25922 assessed as fold change in doxycycline MIC at 7.6 uM incubated for 18 hrs in presence of doxycycline by broth microdilution assay relative to control; type: functional
# Pseudomonas aeruginosa [27] = assay: Potentiation of doxycycline-induced antibacterial activity against Pseudomonas aeruginosa 264-101354 assessed as fold change in doxycycline MIC at 7.6 uM incubated for 18 hrs in presence of doxycycline by broth microdilution assay relative to control; type: functional
compound,measurement,setting,value
NC[C@H]1O[C@H](O[C@H]2[C@H](O)[C@@H](O[C@H]3O[C@H](CO)[C@@H](O)[C@H](N)[C@H]3O)[C@H](N)C[C@@H]2N)[C@H](N)C[C@@H]1O [TOBRAMYCIN],FIC,Pseudomonas aeruginosa [1],0.5
same,FIC,Pseudomonas aeruginosa [2],0.5
same,MIC,Pseudomonas aeruginosa [3],4100 µg/mL
CO[C@H]1/C=C/O[C@@]2(C)Oc3c(C)c(O)c4c(O)c(c(/C=N/N5CCN(Cc6cn(CCCCCCO[C@@H]7[C@@H](O[C@H]8O[C@H](CO)[C@@H](O)[C@H](N)[C@H]8O)[C@H](N)C[C@H](N)[C@H]7O[C@H]7O[C@H](CN)[C@@H](O)C[C@H]7N)nn6)CC5)c(O)c4c3C2=O)NC(=O)/C(C)=C\C=C\[C@H](C)[C@H](O)[C@@H](C)[C@@H](O)[C@@H](C)[C@H](OC(C)=O)[C@@H]1C.Cl.Cl.Cl.Cl.Cl,fractional inhibitory concentration index (FICI),Pseudomonas aeruginosa [4],<0.53
same,fractional inhibitory concentration index (FICI),Pseudomonas aeruginosa [5],0.13
same,FIC,Pseudomonas aeruginosa [6],0.063
same,FIC,Pseudomonas aeruginosa [7],0.016
same,FIC,Pseudomonas aeruginosa [8],<0.125
same,MIC,Pseudomonas aeruginosa [9],4 µg/mL
same,fold change (FC),Klebsiella pneumoniae,0
same,MIC,Pseudomonas aeruginosa [10],8 µg/mL
same,FIC,Pseudomonas aeruginosa [11],<0.008
same,MIC,Pseudomonas aeruginosa [12],1 µg/mL
same,MIC,Pseudomonas aeruginosa [13],16 µg/mL
same,fractional inhibitory concentration index (FICI),Pseudomonas aeruginosa [14],<0.16
same,MIC,Pseudomonas aeruginosa [15],1 µg/mL
same,FIC,Pseudomonas aeruginosa [16],<0.125
same,fractional inhibitory concentration index (FICI),Pseudomonas aeruginosa [17],<0.25
same,fold change (FC),Pseudomonas aeruginosa [18],16
same,fold change (FC),Pseudomonas aeruginosa [19],4
same,Activity,HepG2,Non-Toxic
CO[C@H]1/C=C/O[C@@]2(C)Oc3c(C)c(O)c4c(O)c(c(/C=N/N5CCN(C)CC5)c(O)c4c3C2=O)NC(=O)/C(C)=C\C=C\[C@H](C)[C@H](O)[C@@H](C)[C@@H](O)[C@@H](C)[C@H](OC(C)=O)[C@@H]1C [RIFAMPIN],MIC,Pseudomonas aeruginosa [20],1020 µg/mL
same,MIC,Pseudomonas aeruginosa [21],32 µg/mL
same,MIC,Pseudomonas aeruginosa [22],128 µg/mL
CO[C@H]1/C=C/O[C@@]2(C)Oc3c(C)c(O)c4c(O)c(c(/C=N/N5CCN(Cc6cn(CCCCCCCCCCCCO[C@@H]7[C@@H](O[C@H]8O[C@H](CO)[C@@H](O)[C@H](N)[C@H]8O)[C@H](N)C[C@H](N)[C@H]7O[C@H]7O[C@H](CN)[C@@H](O)C[C@H]7N)nn6)CC5)c(O)c4c3C2=O)NC(=O)/C(C)=C\C=C\[C@H](C)[C@H](O)[C@@H](C)[C@@H](O)[C@@H](C)[C@H](OC(C)=O)[C@@H]1C.O=C(O)C(F)(F)F.O=C(O)C(F)(F)F.O=C(O)C(F)(F)F.O=C(O)C(F)(F)F.O=C(O)C(F)(F)F,MIC,Pseudomonas aeruginosa [23],0.125 µg/mL
same,MIC,Pseudomonas aeruginosa [24],0.0625 µg/mL
same,fold change (FC),Pseudomonas aeruginosa [25],4
same,MIC,Pseudomonas aeruginosa [26],2 µg/mL
same,fold change (FC),Escherichia coli,0
same,fold change (FC),Pseudomonas aeruginosa [27],4
